This passage reports inhibition of growth results from US5455356A, “Fungicidal 1-aryl-1-[α-(triazolyl)alkyl]-1-silacycloalkanes and their preparation methods” (priority 1993, dated 1995).

Assay type in all cases: cell-based
Experiment [1] has as its system Botryosphaeri. In words: In vitro mycelial/spore growth on potato-sucrose-agar, percent disease control (BD). The settings on record: read-out: % controlled, BD. How it is done: (§1) The compounds of this invention were dissolved respectively in acetone in an amount equal to 10% of the final volume and then in purified water at the concentration of 100 ppm and 50 ppm.
(§2) Each of the solution was mixed with potato-sucrose-agar medium in 6" petri dish and one of the fungi was spotted at the center of the dish. The dish was incubated in growth room for several days. The percent disease control was derived from the radii of spore growth. The screening tests in vitro condition are well-known to those skilled in the art.
(§3) The following fungi were used for the screening.
4) Bo. do (Ma); Botryosphaeri

Experiment [2] relates to Botritis cinerea. In words: In vitro mycelial/spore growth on potato-sucrose-agar, percent disease control (BC). The settings on record: read-out: % controlled, BC. How it is done: as §1, §2, §3
10) Bo. ci.; Botritis cinerea

Experiment [3] deals with Rhizopus sp. Put plainly: In vitro mycelial/spore growth on potato-sucrose-agar, percent disease control (RS, second column). The settings on record: read-out: % controlled, RS; for inhibition of growth at 50 ppm: Rhizopus sp.; for inhibition of growth at 200 ppm: Rhizopus. The method, then:
as §1, §2, §3
9) Rhi. sp.; Rhizopus sp.

Experiment [4] deals with GC. Put plainly: In vitro mycelial/spore growth on potato-sucrose-agar, percent disease control (GC). The settings on record: read-out: % controlled, GC; for inhibition of growth at 50 ppm: GC. The method, then:
as §1, §2, §3

The subject of experiment [5] is Phytophthora capsisi. Put plainly: In vitro mycelial/spore growth on potato-sucrose-agar, percent disease control (PC). The settings on record: read-out: % controlled, PC. The method, then: as §1, §2, §3
2) Phy. ca.; Phytophthora capsisi

Experiment [6] concerns Rhizoctonia solani. Put plainly: In vitro mycelial/spore growth on potato-sucrose-agar, percent disease control (RS, first column). Conditions: read-out: % controlled, RS. How it is done:
as §1, §2, §3
7) Rhi. so.; Rhizoctonia solani

Experiment [7] has as its system Fusarium moniliforme. In words: In vitro mycelial/spore growth on potato-sucrose-agar, percent disease control (FM). Conditions: Fusarium verticillioides, Fusarium moniliforme, read-out: % controlled, FM. The method, then: as §1, §2, §3
8) Fu. mo.; Fusarium moniliforme

Experiment [8] concerns Pyricalaria oryzae. In words: In vitro mycelial/spore growth on potato-sucrose-agar, percent disease control (PO). Conditions: read-out: % controlled, PO. How it is done: as §1, §2, §3
6) Py. or.; Pyricalaria oryzae

Each structure is given as a SMILES string.

In the case of `CCOc1ccc([Si]2(Cn3cncn3)CCCCC2)cc1` [1-(4-ethoxyphenyl)-1-(1H-1,2,4-triazole-1-yl)methyl-1-silacyclohexane], the inhibition of growth at 50 ppm in experiment [1] worked out at 79%; in experiment [2], 74%; in experiment [3] it was 54%; in experiment [4] it was 100%; in experiment [5], 65%; in experiment [6] it was 94%. The results for the inhibition of growth at 50 ppm in experiment [7] and in experiment [8] were 73% and 100%, respectively. Further, the inhibition of growth at 200 ppm in experiment [1] stood at 100%; in experiment [2] it was 94%; in experiment [3], 85%; in experiment [4], 100%; in experiment [5], 87%; in experiment [6], 100%. For the same compound, the figures for the inhibition of growth at 200 ppm in experiment [7] and in experiment [8] were 99% and 100%, respectively.

For `CC(n1cncn1)[Si]1(c2ccc(F)cc2)CCCC1` (stereo not drawn) [1-(4-fluorophenyl)-1-[α-(1H-1,2,4-triazole-1-yl)ethyl]-1-silacyclopentane], the inhibition of growth at 50 ppm in experiment [1] is 100%; in experiment [2] it was 100%; in experiment [3], 59%; in experiment [4], 100%; in experiment [5], 45%; in experiment [6], 100%. Also, the values for the inhibition of growth at 50 ppm in experiment [7] and in experiment [8] were 94% and 100%, respectively. Besides, the inhibition of growth at 200 ppm was determined as 100% in experiment [1]; 100% in experiment [2]; 75% in experiment [3]; 100% in experiment [4]; 100% in experiment [5]; 100% in experiment [6]. For the same compound, the inhibition of growth at 200 ppm in experiment [7] and in experiment [8] was 100% each time.

As to `CC(n1cncn1)[Si]1(c2ccc(C(F)(F)F)cc2)CCCC1` (stereo not drawn) [1-(4-trifluoromethyl)-1-[α-(1H-1,2,4-triazole-1-yl)ethyl]-1-silacyclopentane], the inhibition of growth at 50 ppm in experiment [1] was 90%; in experiment [2], 94%; in experiment [3], 56%; in experiment [4] it was 100%; in experiment [5], 86%; in experiment [6], 92%. Besides, the inhibition of growth at 50 ppm was 73% in experiment [7] and 100% in experiment [8]. In addition, the inhibition of growth at 200 ppm is 100% in experiment [1]; 100% in experiment [2]; 75% in experiment [3]; 100% in experiment [4]; 98% in experiment [5]; 100% in experiment [6]. Moreover, the inhibition of growth at 200 ppm was 99% in experiment [7] and 100% in experiment [8].

Turning to `Clc1ccc([Si]2(Cn3cncn3)CCCCC2)cc1` [1-(4-chlorophenyl)-1-(1H-1,2,4-triazole-1-yl)methyl-1-silacyclohexane], the inhibition of growth at 50 ppm in experiment [1] turned out to be 100%; in experiment [2], 100%; in experiment [3], 50%; in experiment [4] it was 100%; in experiment [5], 90%; in experiment [6], 57%. The inhibition of growth at 50 ppm in experiment [7] and in experiment [8] was 100% in each case. The inhibition of growth at 200 ppm in experiment [1] worked out at 100%; in experiment [2], 100%; in experiment [3], 92%; in experiment [4], 100%; in experiment [5], 100%; in experiment [6], 69%. Besides, the inhibition of growth at 200 ppm in experiment [7] and in experiment [8] was 100% throughout.

Consider `c1ccc(-c2ccc([Si]3(Cn4cncn4)CCCC3)cc2)cc1` [1-(4-biphenyl)-1-(1H-1,2,4-triazole-1-yl)methyl-1-silacyclopentane], for which the inhibition of growth at 50 ppm came to 72% in experiment [1]; 15% in experiment [2]; 69% in experiment [3]; 100% in experiment [4]; 68% in experiment [5]; 89% in experiment [6]. In addition, the inhibition of growth at 50 ppm in experiment [7] amounted to 47%; in experiment [8], 100%. The inhibition of growth at 200 ppm is 72% in experiment [1]; 30% in experiment [2]; 72% in experiment [3]; 100% in experiment [4]; 100% in experiment [5]; 93% in experiment [6]. Moreover, the inhibition of growth at 200 ppm in experiment [7] and in experiment [8] was 100% each time.

Regarding `COc1ccc([Si]2(Cn3cncn3)CCCCC2)cc1` [1-(4-methoxyphenyl)-1-(1H-1,2,4-triazole-1-yl)methyl-1-silacyclohexane], the inhibition of growth at 50 ppm in experiment [1] came out at 85%; in experiment [2] it was 69%; in experiment [3], 65%; in experiment [4] it was 100%; in experiment [5], 49%; in experiment [6], 96%. In addition, the figures for the inhibition of growth at 50 ppm in experiment [7] and in experiment [8] were 81% and 100%, respectively. For the same compound, the inhibition of growth at 200 ppm in experiment [1] was found to be 100%; in experiment [2] it was 89%; in experiment [3], 79%; in experiment [4], 100%; in experiment [5], 93%; in experiment [6] it was 100%. Besides, the inhibition of growth at 200 ppm in experiment [7] was determined as 92%; in experiment [8], 100%.

As to `CC(n1cncn1)[Si]1(c2ccc(Cl)cc2)CCCCC1` (stereo not drawn) [1-(4-chlorophenyl)-1-[α-(1H-1,2,4-triazole-1-yl)ethyl]-1-silacyclohexane], the inhibition of growth at 50 ppm in experiment [1] amounted to 100%; in experiment [2] it was 100%; in experiment [3] it was 77%; in experiment [4], 100%; in experiment [5] it was 75%; in experiment [6], 100%. In addition, the inhibition of growth at 50 ppm in experiment [7] and in experiment [8] was 100% throughout. Further, the inhibition of growth at 200 ppm in experiment [1] was determined as 100%; in experiment [2] it was 100%; in experiment [3], 90%; in experiment [4] it was 100%; in experiment [5], 100%; in experiment [6], 100%. The inhibition of growth at 200 ppm in experiment [7] and in experiment [8] was 100% throughout.

With `Fc1ccc([Si]2(Cn3cncn3)CCCC2)c(F)c1` [1-(2,4-difluorophenyl)-1-(1H-1,2,4-triazole-1-yl)methyl-1-silacyclopentane], the inhibition of growth at 50 ppm amounted to 100% in experiment [1]; 100% in experiment [2]; 63% in experiment [3]; 100% in experiment [4]; 32% in experiment [5]; 76% in experiment [6]. The inhibition of growth at 50 ppm in experiment [7] and in experiment [8] was 100% each time. Further, the inhibition of growth at 200 ppm in experiment [1] came out at 100%; in experiment [2], 100%; in experiment [3], 72%; in experiment [4], 100%; in experiment [5], 85%; in experiment [6] it was 100%. Further, the inhibition of growth at 200 ppm in experiment [7] and in experiment [8] was 100% in each case.

With `CCOc1ccc([Si]2(C(C)n3cncn3)CCCCC2)cc1` (stereo not drawn) [1-(4-ethoxyphenyl)-1-[α-(1H-1,2,4-triazole-1-yl)ethyl]-1-silacyclohexane], the inhibition of growth at 50 ppm in experiment [1] was 92%; in experiment [2], 65%; in experiment [3], 34%; in experiment [4] it was 100%; in experiment [5] it was 45%; in experiment [6], 97%. In addition, the inhibition of growth at 50 ppm in experiment [7] was 65%; in experiment [8], 100%. The inhibition of growth at 200 ppm was found to be 100% in experiment [1]; 98% in experiment [2]; 56% in experiment [3]; 100% in experiment [4]; 75% in experiment [5]; 100% in experiment [6]. Besides, the inhibition of growth at 200 ppm in experiment [7] is 98%; in experiment [8], 100%.
